{"source": "paper PMC8733726", "about": "“Dioctanoyl Ultrashort Tetrabasic β-Peptides Sensitize Multidrug-Resistant Gram-Negative Bacteria to Novobiocin and Rifampicin” (Frontiers in Microbiology, 2021)", "key": {"[1]": {"system": "MDR E. coli clinical isolates", "test": "Resistance phenotype (MICs of antibiotics) of MDR clinical isolates", "type": "cell-based, Escherichia coli"}, "[2]": {"system": "MDR A. baumannii clinical isolates", "test": "Resistance phenotype (MICs of antibiotics) of MDR clinical isolates", "type": "cell-based, Acinetobacter baumannii"}, "[3]": {"system": "MDR K. pneumoniae clinical isolates", "test": "Resistance phenotype (MICs of antibiotics) of MDR clinical isolates", "type": "cell-based, Klebsiella pneumoniae"}, "[4]": {"system": "wild-type E. coli ATCC 25922", "test": "microbe, parasite or virus in culture", "type": "cell-based, Escherichia coli", "details": "ATCC 25922; for MICcombo: antibiotic with dUSTBβP 3 at 8 μg/mL", "summary_of_the_method": "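Antibiotic and adjuvant were serially diluted 2-fold against each other in MHB, inoculated at 5 × 10^5 CFU/mL and incubated at 37°C for 18 h. Growth was read as turbidity at 590 nm. FICI was the sum of each agent's combination MIC divided by its MIC alone; ≤ 0.5 counted as synergy.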"}, "[5]": {"system": "wild-type P. aeruginosa PAO1", "test": "microbe, parasite or virus in culture", "type": "cell-based, Pseudomonas aeruginosa", "details": "PAO1; for MICcombo: antibiotic with dUSTBβP 3 at 8 μg/mL", "summary_of_the_method": "(§1)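 Checkerboard in MHB with 5 × 10^5 CFU/mL inoculum, antibiotic and adjuvant each serially 2-fold diluted on crossed axes. Growth read as turbidity at 590 nm; FICI is the sum of each agent's MIC in combination divided by its MIC alone.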"}, "[6]": {"system": "wild-type A. baumannii ATCC 17978", "test": "Checkerboard assay", "type": "cell-based, Acinetobacter baumannii", "details": "ATCC 17978; for MICcombo: antibiotic with dUSTBβP 3 at 8 μg/mL", "summary_of_the_method": "as §1"}, "[7]": {"system": "MDR E. cloacae clinical isolates", "test": "Resistance phenotype (MICs of antibiotics) of MDR clinical isolates", "type": "cell-based, Enterobacter cloacae"}, "[8]": {"system": "MDR P. aeruginosa clinical isolates", "test": "Resistance phenotype (MICs of antibiotics) of MDR clinical isolates", "type": "cell-based, Pseudomonas aeruginosa"}, "[9]": {"details": "in vivo; cited from earlier work"}, "[10]": {"details": "in vivo; cited from earlier work", "remark": "listed apart in the source"}, "[11]": {"system": "MDR clinical isolates of P. aeruginosa", "test": "Checkerboard assay, MDR clinical isolates", "type": "cell-based, Pseudomonas aeruginosa", "details": "antibiotic alone", "description": "(§2) The adjuvant activities of dUSTBβPs were evaluated using checkerboard assay as previously described ([Berry et al., 2019]). Overnight-grown bacterial culture diluted in saline to 0.5 McFarland turbidity was successively diluted 1:50 in MHB to achieve a final concentration of 5 × 10^5 CFU/mL for inoculation. The antibiotic and adjuvant were serially diluted 2-fold along the x-axis and y-axis, respectively, resulting in varying concentrations of both agents in each well. Subsequently, the 96-well plate was incubated with equal volumes of bacterial inoculum at 37°C for 18 h. Confirmation of turbidity was done using an EMax Plus microplate reader (Molecular Devices, United States) at a wavelength of 590 nm. Wells comprising MHB alone or in the presence of bacterial cells were used as negative or positive controls, respectively. Fractional inhibitory concentration index (FICI) is determined by adding the FICs of both antibiotic and adjuvant. The FIC of the antibiotic is calculated by dividing the MIC of the antibiotic in the presence of the adjuvant by the MIC of the antibiotic alone. Similarly, the FIC of the adjuvant is calculated by dividing the MIC of the adjuvant in the presence of the antibiotic by the MIC of the adjuvant alone. FICI ≤ 0.5, 0.5 < x ≤ 4, and >4 were deemed synergistic, additive, and antagonistic, respectively ([Meletiadis et al., 2010])."}, "[12]": {"system": "MDR clinical isolates of A. baumannii", "type": "cell-based, Acinetobacter baumannii", "details": "antibiotic alone", "description": "as §2"}, "[13]": {"system": "MDR E. coli", "type": "cell-based, Escherichia coli", "details": "94393; antibiotic alone", "description": "as §2"}, "[14]": {"system": "MDR K. pneumoniae", "type": "cell-based, Klebsiella pneumoniae", "details": "antibiotic alone", "description": "as §2"}, "[15]": {"system": "MDR E. cloacae", "test": "Checkerboard assay, MDR clinical isolates", "type": "cell-based, Enterobacter cloacae", "details": "antibiotic alone", "description": "as §2"}, "[16]": {"system": "wild-type A. baumannii ATCC 17978", "test": "Time-kill assay", "type": "cell-based, Acinetobacter baumannii", "details": "32 μg/mL novobiocin or 0.5 μg/mL rifampicin alone", "description": "(§3) Overnight-grown bacterial culture diluted in PBS to 0.5 McFarland turbidity was successively diluted 1:50 in lysogeny broth (LB). Cell cultures in the presence of dUSTBβP 3, novobiocin, or rifampicin, or combinations of adjuvant and antibiotic were incubated at 37°C. At designated intervals, 100 μL aliquots acquired from each culture tube were serially diluted in PBS and plated on LB agar plates."}, "[17]": {"system": "MDR A. baumannii 110193", "test": "Time-kill assay", "type": "cell-based, Acinetobacter baumannii", "details": "32 μg/mL novobiocin or 0.5 μg/mL rifampicin alone", "description": "as §3"}, "[18]": {"details": "antibiotic alone (Supplementary Table 7)"}}, "note": "Like-named read-outs stand apart in the source and are kept apart here."}
{"compound": "Colistin", "values": [{"measurement": "MIC", "setting": "[1]; 94393 (mcr-1 +)", "result": 4, "unit": "µg/mL"}, {"measurement": "MIC", "setting": "[1]; 94474 (mcr-1 +)", "result": 16, "unit": "µg/mL"}, {"measurement": "MIC", "setting": "[1]; 107115", "result": 0.125, "unit": "µg/mL"}, {"measurement": "MIC", "setting": "[2]; 92247", "result": 4, "unit": "µg/mL"}, {"measurement": "MIC", "setting": "[2]; 110193", "result": 0.5, "unit": "µg/mL"}, {"measurement": "MIC", "setting": "[2]; AB027", "result": 0.25, "unit": "µg/mL"}, {"measurement": "MIC", "setting": "[2]; AB031", "result": 0.25, "unit": "µg/mL"}, {"measurement": "MIC", "setting": "[2]; LAC-4", "result": 0.125, "unit": "µg/mL"}, {"measurement": "MIC", "setting": "[3]; 113250", "result": "> 16", "unit": "µg/mL"}, {"measurement": "MIC", "setting": "[3]; 113254", "result": "> 16", "unit": "µg/mL"}, {"measurement": "MIC", "setting": "[3]; 116381", "result": 1, "unit": "µg/mL"}, {"measurement": "MICantibiotic", "setting": "[4]; [18]", "result": 0.125}, {"measurement": "MICcombo", "setting": "[4]", "result": 0.031, "unit": "µg/mL"}, {"measurement": "MICantibiotic", "setting": "[5]; [18]", "result": 1}, {"measurement": "MICcombo", "setting": "[5]", "result": 1, "unit": "µg/mL"}, {"measurement": "MICantibiotic", "setting": "[6]; [18]", "result": 0.5}, {"measurement": "MICcombo", "setting": "[6]", "result": 0.25, "unit": "µg/mL"}, {"measurement": "MIC", "setting": "[7]; 117029", "result": 0.25, "unit": "µg/mL"}, {"measurement": "MIC", "setting": "[7]; 118564", "result": "> 16", "unit": "µg/mL"}, {"measurement": "MIC", "setting": "[7]; 121187", "result": "> 16", "unit": "µg/mL"}, {"measurement": "MIC", "setting": "[8]; 259-96196", "result": 1, "unit": "µg/mL"}, {"measurement": "MIC", "setting": "[8]; 262-101856", "result": 1, "unit": "µg/mL"}, {"measurement": "MIC", "setting": "[8]; 264-104354", "result": 1, "unit": "µg/mL"}, {"measurement": "MIC", "setting": "[8]; 91433", "result": 4, "unit": "µg/mL"}, {"measurement": "MIC", "setting": "[8]; 114228", "result": 4, "unit": "µg/mL"}, {"measurement": "In vivo elimination half-life", "setting": "[9]", "result": 5, "unit": "h"}]}
{"compound": "CO[C@@H]1[C@@H](OC(N)=O)[C@@H](O)[C@H](Oc2ccc3c(O)c(NC(=O)c4ccc(O)c(CC=C(C)C)c4)c(=O)oc3c2C)OC1(C)C", "note": "[Novobiocin]", "values": [{"measurement": "Steady-state serum concentration", "setting": "[10]", "result": 5, "unit": "µg/mL"}, {"measurement": "MICantibiotic", "setting": "[4]; antibiotic alone", "result": 64, "unit": "µg/mL"}, {"measurement": "MICcombo", "setting": "[4]", "result": 0.125, "unit": "µg/mL"}, {"measurement": "MIC", "setting": "[4]; Escherichia coli, ATCC25922, 18 h, antibiotic alone (Supplementary Table 7), read-out: MICantibiotic", "result": 64, "unit": "µg/mL"}, {"measurement": "MICantibiotic", "setting": "[5]; antibiotic alone", "result": "1,024 μg/mL"}, {"measurement": "MICcombo", "setting": "[5]", "result": 32, "unit": "µg/mL"}, {"measurement": "MIC", "setting": "[5]; Pseudomonas aeruginosa, 18 h, antibiotic alone (Supplementary Table 7), read-out: MICantibiotic", "result": 1020, "unit": "µg/mL"}, {"measurement": "MICantibiotic", "setting": "[11]; PA259-96196", "result": 1024, "unit": "µg/mL"}, {"measurement": "MICantibiotic", "setting": "[11]; PA259-96196, listed as novobiocin", "result": "1,024 μg/mL"}, {"measurement": "MICantibiotic", "setting": "[11]; PA262-101856", "result": 1024, "unit": "µg/mL"}, {"measurement": "MICantibiotic", "setting": "[11]; PA262-101856, listed as novobiocin", "result": "1,024 μg/mL"}, {"measurement": "MICantibiotic", "setting": "[11]; PA264-104354", "result": 1024, "unit": "µg/mL"}, {"measurement": "MICantibiotic", "setting": "[11]; PA264-104354, listed as novobiocin", "result": "1,024 μg/mL"}, {"measurement": "MICantibiotic", "setting": "[11]; PA91433", "result": 1024, "unit": "µg/mL"}, {"measurement": "MICantibiotic", "setting": "[11]; PA91433, listed as novobiocin", "result": "1,024 μg/mL"}, {"measurement": "MICantibiotic", "setting": "[11]; PA114228", "result": 1024, "unit": "µg/mL"}, {"measurement": "MICantibiotic", "setting": "[11]; PA114228, listed as novobiocin", "result": "1,024 μg/mL"}, {"measurement": "MICantibiotic", "setting": "[6]; antibiotic alone", "result": 16, "unit": "µg/mL"}, {"measurement": "MICcombo", "setting": "[6]", "result": 0.25, "unit": "µg/mL"}, {"measurement": "MIC", "setting": "[6]; Acinetobacter baumannii, ATCC17978, 18 h, antibiotic alone (Supplementary Table 7), read-out: MICantibiotic", "result": 16, "unit": "µg/mL"}, {"measurement": "MICantibiotic", "setting": "[12]; 92247", "result": 4, "unit": "µg/mL"}, {"measurement": "MICantibiotic", "setting": "[12]; 110193", "result": 128, "unit": "µg/mL"}, {"measurement": "MICantibiotic", "setting": "[12]; AB027", "result": 8, "unit": "µg/mL"}, {"measurement": "MICantibiotic", "setting": "[12]; AB031", "result": 4, "unit": "µg/mL"}, {"measurement": "MICantibiotic", "setting": "[12]; LAC-4", "result": "> 0.5", "unit": "µg/mL"}, {"measurement": "MICantibiotic", "setting": "[12]; LAC-4, listed as novobiocin", "result": 1, "unit": "µg/mL"}, {"measurement": "MICantibiotic", "setting": "[13]", "result": 64, "unit": "µg/mL"}, {"measurement": "MICantibiotic", "setting": "[14]; 113250", "result": 128, "unit": "µg/mL"}, {"measurement": "MICantibiotic", "setting": "[14]; 113254", "result": 256, "unit": "µg/mL"}, {"measurement": "MICantibiotic", "setting": "[14]; 116381", "result": 256, "unit": "µg/mL"}, {"measurement": "MICantibiotic", "setting": "[15]; 117029", "result": 512, "unit": "µg/mL"}, {"measurement": "MICantibiotic", "setting": "[15]; 118564", "result": 256, "unit": "µg/mL"}, {"measurement": "MICantibiotic", "setting": "[15]; 121187", "result": 16, "unit": "µg/mL"}, {"measurement": "Time-kill outcome", "setting": "[16]", "result": "Bacteriostatic"}, {"measurement": "Time-kill outcome", "setting": "[17]", "result": "Bacteriostatic"}]}
